row,melting point [°C],Compound
1,148 to 150,CCOC(=O)C1=C(COCCNc2nccc(=O)[nH]2)NC(C)=C(C(=O)OC)C1c1ccccc1Cl (stereo not given)
2,132 to 134,Cc1cccc2[nH]c(C(=O)NCCc3ccc(CCCC(=O)O)cc3)cc12
3,109 to 110,CCOC(=O)C(C#N)=Cc1ccc(OC)c(OC2CCCC2)c1
4,45 to 48,COc1cccc(OC/C=C(\C)C=O)c1
5,155 to 156,CC(=O)Nc1ccc2c(c1)C(=O)N(CCO)CO2
6,122,NC(=O)N1C(=O)C(=C(OCOC(=O)COCC(=O)OCc2ccccc2)c2cccs2)c2cc(F)c(Cl)cc21
7,107 to 109,COc1ccc(-c2cc3c(OC)c(Br)c(OC)cc3o2)cc1
8,190 to 192,O=C(c1ccccc1)c1nc(Br)c2n1CCC2C(=O)O (stereo not given)
9,229,COc1cc(Cc2cnc(N)nc2N)c2c(c1OC)OC(C1CC1)C=C2 (stereo not given)
10,119 to 124,Cc1cccc(-c2[nH]c(C(C)C)nc2-c2cccc(-c3ccc(N)cn3)c2)n1
11,168,CC(C)(C)OC(=O)N[C@H](Cc1ccccc1)C(=O)OCCCNc1cccc2c1C(=O)c1ccccc1C2=O
12,119 to 122,NC(=O)[C@H]1[C@H](CS)N(Cc2ccccc2)C(=O)N1Cc1ccccc1
13,95 to 97,COC(=O)[C@H](CSC)Nc1ncccc1[N+](=O)[O-]
14,140 to 145,c1cc(OCCCNCC2COc3cc4c(cc3O2)OCO4)c2cccnc2c1 (stereo not given)
15,101,COC(=O)[C@H](Cc1ccc(O)cc1)NC(=O)Cc1ccccc1
16,168 to 171,CCCN(C)C(=O)Nc1c(C(=O)c2ccccc2)[nH]c2cc(Cl)ccc12
17,> 300,CSc1cnc2cc(-c3cccc(Cl)c3)sc2c1O
18,182,CON=C(C#N)C(=O)NC(=O)NC1CC1
19,> 300,Cn1c(=O)c2c(N)ncnc2n(C)c1=O
20,60,Cc1ccc(I)cc1O
21,120,CCOC(=O)Cc1ccccc1N(C(=O)CNC(=O)Nc1cccc(C)c1)c1ccccc1
22,88 to 90,CC(C(=O)N(C)C)n1ccc(-c2c(Cl)cccc2Cl)n1 (stereo not given)
23,171,CC(C)C[C@H](NC(=O)OCc1ccccc1)C(=O)N[C@@H](Cc1ccccc1)C(=O)CS

row,melting point [°C],Compound
1,166 to 167,COC(=O)/C=C/C=C/c1ccc(OCc2nc(-c3ccccc3)oc2C)c(OC)c1
2,98 to 102,Nc1ccccc1CSc1ncc(C(F)(F)F)cc1Cl
3,125 to 126,COC1C(OC(N)=O)CCC2(CO2)C1C1(C)OC1CC=C(C)C (stereo not given)
4,211 to 212,NC(=O)c1ccc(NC(=O)C2CCCN(Cc3ccccc3)C2)cc1 (stereo not given)
5,80 to 81,CCOC(=O)CCc1cc(-c2ccc(Cl)cc2)n(-c2ccc(OC)cc2)n1
6,114 to 115,COc1ccc(NCC(C)C#N)c([N+](=O)[O-])c1 (stereo not given)
7,225 to 227,COc1nc(C)c(N2CCCn3c2nc2c(Cl)ccc(C(OCC(F)(F)F)C4CC4)c23)c(C)n1 (stereo not given)
8,132,C=CC1CCC(C2CCC3c4ccc(OCC)c(F)c4OC3C2)CC1 (stereo not given)
9,133 to 134,CCCCNC(=O)Nc1ccccc1CCc1cc(C(C)(C)C)c(O)c(C(C)(C)C)c1
10,164 to 165,CCOc1cc2c(C)c(CCN3CCN(c4ccccc4)CC3)c(=O)oc2cc1OC
11,74 to 75,COc1ccccc1C(C)(O)c1ocnc1C (stereo not given)
12,196 to 198,O=C(O)COc1ccc(C(=O)c2ccc(Cl)cc2)c(Cl)c1Cl
13,159 to 160,COc1cc(C=O)cc(OC)c1NC=O
14,62 to 63,COC(=O)c1ccc(OCC2CCCCC2)cc1
15,205 to 207,CCn1ncc2c(NCC3CCCCC3)c3ccc([N+](=O)[O-])cc3nc21
16,169 to 170,NC(=O)c1cccc(-c2ccc(Cl)c3cc(Cc4cc(F)cc(Cl)c4)sc23)c1
17,94 to 97,CC1(C)COC(=O)N1c1nc(-c2ccccc2)cs1
18,51 to 52,Cc1nc(Br)cnc1N
19,132 to 134,COc1ccc(C2SCc3c(sc(N)c3C(=O)c3cccc4ccccc34)S2)cc1 (stereo not given)
20,176 to 177,O=C1N[C@H](Cc2ccc(C(F)(F)F)cc2)[C@H](c2ccc(Cl)nc2)O1 (racemic)
21,200 to 201,CONC(=O)c1cc(C(=O)OC)c(O)c2ncc(Cc3ccc(F)cc3)cc12
22,174 to 175,CCc1cc2c(O)cc(=O)oc2cc1OC
23,262 to 264,Cc1cncc(-c2nc3cc(NC(=O)c4c(C(=O)N5CCC5)cnn4C)ccn3n2)c1

row,melting point [°C],Compound
1,135 to 137,CCCOc1ccc(Br)cc1CN(CC)c1ccc(C(=O)O)nn1
2,99 to 101,CCN(C(=O)C1(C(=O)O)CC1)c1ccc(Cl)cc1
3,219,COc1cc(OC)nc(-n2nc(C)n(N)c2=O)n1
4,109 to 111,COC(=O)c1ccc2cc(OC)ccc2c1O
5,155 to 157,CCC(C(=O)Nc1c(C)cccc1C)N(C)C (stereo not given)
6,170 to 172,O=C(c1ccc(-c2ccnnc2)cc1)N1CCN(S(=O)(=O)c2cc3cc(Cl)ccc3[nH]2)CC1
7,188 to 190,COc1cc(Nc2c(C#N)cnc3cc(C#CCCN4CCNCC4)c(OC)cc23)c(Cl)cc1Cl
8,183 to 185,O=C1NCCN1S(=O)(=O)c1ccc(F)cc1
9,132 to 136,c1ccc2sc(SSN3CCOCC3)nc2c1
10,284 to 287,O=c1c2c(Cc3ccccc3)n[nH]c2c2cnccc2n1-c1ccccc1
11,113 to 114,CC(C)(C)OC(=O)c1ccc(C=NO)cc1
12,141,CN(C(=O)N[C@@H](Cc1ccc(Nc2nccc3cnccc23)cc1)C(=O)O)c1ccccc1Cc1ccccc1
13,126 to 127,CN1C(=O)Cc2cc3ccccc3cc2S1(=O)=O
14,88 to 89.5,COC(=O)/C=C/C=C(\c1ccccc1)c1ccc(OC)cc1
15,84 to 85,C=CCOC1OC(C(O)CO)C(OCc2ccccc2)C1O (stereo not given)
16,215,Cc1noc(NC(=O)C(c2ccccc2)c2ccccc2)n1
17,120 to 122,N#CCCCCCn1nc(-c2c(-c3ccccc3)nn3ccccc23)ccc1=O
18,> 200,O=C1CCN(c2ccc(C=C3SC(=O)NC3=O)cc2F)CC1
19,170 to 171,CCOC(=O)NC(=O)C(C#N)=CNc1cccc(F)c1
20,193 to 196,COc1ccc2c(c1)CN(c1ccc3c(ccn3C)c1)C2
21,107,CC(C)S(=O)(=O)c1ccc2c(c1)nc(CC1CC1)n2CC1CC1
22,104 to 106,N#CC(C#N)=C1N(CCCN2CCOCC2)CCN1C1CCN(C2CC2)CC1
23,224 to 226,COc1cc(N(C)C)nc(NC(=O)NS(=O)(=O)c2ccccc2Cl)n1

row,Compound,melting point [°C]
1,CN(C)Cc1c[nH]c2ccc(Br)cc12,139
2,CN1CC(CO)C=C2c3cccc4c3c(cn4C)CC21 (stereo not given),216 to 217
3,Cn1nnc(-c2ccc3[nH]cc(C4=CCN(CCN5CCNC5=O)CC4)c3c2)n1,249 to 252
4,OCc1cn2c(n1)CN=C(c1ccccn1)c1cc(Cl)ccc1-2,206 to 207
5,CCSCCCNc1c(S(=O)(=O)C(F)(F)F)c(C#N)nn1-c1c(Cl)cc(C(F)(F)F)cc1Cl,80
6,O=C(c1ccc(-c2ccccc2)cc1)C1CCN(CCc2c[nH]c3ccccc23)CC1,189 to 192

# — a melting point compilation (Tetko et al.; mined from patent text by program, amines drawn as free bases though some values may be those of a salt)
